Data from patent US20110190307A1, “Assay” (priority 2008, published 2011).
“Also recorded” adds a separate entry of the source.

Experiments:
[1] = test system: primary mammalian motor neurons; experiment: neuroprotective effect on primary mammalian motor neurons in culture under stress; type: cell-based; settings: 0.5 and 5 μM applied 1 hr before stressors (H2O2 and staurosporin), 24 hours, MAP-2 positive cells counted
Protocol: Neuroprotection is measured as a % of cells counted in each experimental condition to the number of control, untreated cells run at the same time on the same plate. NPA was applied 1 hr before stressors (H2O2 and staurosporin), at 2 concentrations: 0.5 and 5 μM. Stressors were applied for 24 hours, then plates were fixed and stained for MAP-2 and then positive cells counted.

[2] = test system: islet-1:GFP+ motor neurons in the ventral spinal cord; experiment: secondary screen paradigm: motor neuron differentiation in islet-1:GFP transgenic embryos; type: in vivo, zebrafish
Protocol: (§1) We use two transgenic lines, in which expression of green fluorescent protein (GFP) is controlled by the motor neuron specific promoters HB9 or islet-1 in the spinal cord. In the HB9:GFP line (Flanagan-Steet et al., 2005), primary motor neurons and their ventral axons are labelled at 24 hours post-fertilisation (hpf). Aberrations in the highly stereotypic pattern of primary motor axons are easily detectable in a stereo-microscope (FIG. 8). […] Thus, acceleration or delay of motor neuron differentiation can readily be assessed under a stereo-microscope.
(§2) Different small molecule libraries may be used for screening. […] Primary screen: Compounds are applied to HB9:GFP embryos in 24 well plates at a concentration of 10-25 μM in accordance with other studies (Zon and Peterson, 2005) at 6 hpf (mid-gastrula) and trajectories of motor axons analysed at 24 hpf. […] Missing, stunted, excessively branched or supernumerary motor axons (FIG. 8), which are easily detectable in a fluorescence-equipped stereo-microscope, are classified as hits. Apparently toxic substances will be re-evaluated at lower concentrations. […] The read-out of this screen is whether the rostro-caudal band of late born secondary motor neurons in the ventral spinal cord is complete. […] To do this, 20 embryos per treatment will be dechorionated, anesthetised (tricaine 1:10000) and analysed under a stereomicroscope. […]

[3] = test system: motor axons in HB9:GFP embryos; experiment: primary screen paradigm: motor axons in HB9:GFP transgenic embryos; type: in vivo, zebrafish; settings: 24 hpf HB9:GFP embryos, compound applied at 6 hpf
Protocol: as §1, §2

[4] = test system: HB9:GFP+ motor neurons in the lesioned adult spinal cord; experiment: adult validation paradigm: motor neuron regeneration after spinal cord lesion; type: in vivo, zebrafish; settings: 2 weeks post-lesion; for number of newly generated motor neurons in HB9:GFP transgenic animals: within 1.5 mm surrounding the lesion site
Protocol: As described previously (Becker et al., 1997), fish were anesthetized by immersion in 0.033% aminobenzoic acid ethylmethylester (MS222; Sigma, St. Louis, Mo.) in PBS for 5 min. A longitudinal incision was made at the side of the fish to expose the vertebral column. The spinal cord was completely transected under visual control 4 mm caudal to the brainstem-spinal cord junction.
Stereological counts were performed in confocal image stacks of three randomly selected vibratome sections from the region up to 750 μm rostral to the lesion site and three sections from the region up to 750 μm caudal to the lesion site. Cell numbers were then calculated for the entire 1.5 mm surrounding the lesion site.
Different small molecule libraries may be used for screening. It is possible to screen the Spectrum Collection of FDA approved drugs and natural products and other bioactive components (2000 compounds), the Diversity Set of the US National Cancer Institute (1990 compounds), the Tocriscreen library (1120 compounds) and the Prestwick Chemical Library (1120 compounds). Due to some overlap between libraries, we will test approximately 5600 individual compounds. All of these libraries are commercially available. Primary screen: Compounds are applied to HB9:GFP embryos in 24 well plates at a concentration of 10-25 μM in accordance with other studies (Zon and Peterson, 2005) at 6 hpf (mid-gastrula) and trajectories of motor axons analysed at 24 hpf. Analysing 2-3 embryos per compound is sufficient, because the pattern of motor axon outgrowth is highly stereotypic, making this a robust and quick screening tool. No anaesthesia or other manipulations are necessary to observe primary motor axons. Missing, stunted, excessively branched or supernumerary motor axons (FIG. 8), which are easily detectable in a fluorescence-equipped stereo-microscope, are classified as hits. Apparently toxic substances will be re-evaluated at lower concentrations. Specificity of the effect will be established in dose-response experiments for each hit. Secondary screen: To exclude non-specific effects on motor axons due to gross alterations of the embryos occurring during early drug application, and to more directly analyse incipient differentiation of motor neurons, we use the islet-1:GFP fish. Hit compounds from the primary screen are applied at 24 hpf, when early embryogenesis is complete, but before islet-1:GFP+ motor neurons have been born. The read-out of this screen is whether the rostro-caudal band of late born secondary motor neurons in the ventral spinal cord is complete. […] To do this, 20 embryos per treatment will be dechorionated, anesthetised (tricaine 1:10000) and analysed under a stereomicroscope. […]

Q: `CCCN1CCc2cccc3c2[C@H]1Cc1ccc(O)c(O)c1-3.Cl` [NPA, R(−)-Propylnorapomorphine] was tested. Which “neuroprotection: number of neurons surviving stress conditions (% of untreated control cells)” value [1] did it give?
A: significantly increases the number of mammalian neurons surviving stress conditions

Q: Which “embryos with a complete band of differentiated motor neurons” value ([2]; 72 hpf, controls 82%, p<0.00001) does the source give for `CC1=C2C[C@H]3[C@@H](CC=C4C[C@@H](O)CC[C@@]43C)[C@@H]2CC[C@]12O[C@@H]1C[C@H](C)CN[C@H]1[C@H]2C` [cyclopamine] here?
A: 11%

Q: What about the “effect on motor neuron differentiation (in words)” value ([2]; islet-1:GFP embryos, compound applied at 24 hpf, read at 48 hpf and 72 hpf) of the same compound?
A: blocks their differentiation; also recorded: retarded motor neuron differentiation

Q: And the “absence of motor axons” value [3]?
A: complete

Q: And the “reduction in the number of newly generated motor neurons” value ([4]; compared to tomatidine-injected animals)?
A: 50%

Q: What about the “number of newly generated motor neurons in HB9:GFP transgenic animals” value ([4]; intraperitoneal injection) of the same compound?
A: 377±45.7 cells

Q: With `C[C@H]1CC[C@]2(NC1)O[C@H]1C[C@H]3[C@@H]4CC[C@H]5C[C@@H](O)CC[C@]5(C)[C@H]4CC[C@]3(C)[C@H]1[C@@H]2C` [tomatidine] as the compound, how does the “number of large motor neurons” value ([4]; intraperitoneal injection, p=0.0008) read?
A: 20±4.2

Q: And the “number of newly generated motor neurons in HB9:GFP transgenic animals” value ([4]; intraperitoneal injection)?
A: 747±42.2 cells
